Values quoted from earlier work as cited in patent US20070219127A1, “CYCLOSPORIN A COMPOSITIONS” (priority 2006, published 2007).

| SMILES | systemically administered elimination half-life |
| --- | --- |
| FC1(F)C(F)(F)C(F)(F)C2(F)C(F)(C1(F)F)C(F)(F)C(F)(F)C1(F)C(F)(F)C(F)(F)C(F)(F)C(F)(F)C12F (centres unmarked) [PPP, perfluoroperhydrophenanthrene] | about 7 days |
| FC1(F)C(F)(F)C(F)(F)C2(F)C(F)(F)C(F)(F)C(F)(F)C(F)(F)C2(F)C1(F)F (centres unmarked) [PFD, Perfluoro (decahydronaphthalene)] | about 7 days |
